According to the supplement of paper PMC10307832:

Columns and labels:
Experiment in all cases: relative viability (nuclei count vs DMSO), 5 days (fraction); higher = more cells survive
[1] = tested on: A-427
How it was run: (§1)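 A single step with final 0.05% Triton X-100, 1% formaldehyde and 1 ug/ml Hoechst fixed the cells and stained nuclei 5 days after treatment. Lung cancer cell lines in 1536-well plates had been treated by pin tool the day after seeding with one drug alone or a fixed anchor-drug dose plus five library-drug doses (not always all listed) in √10 steps, and nuclei were counted on 4× images. Relative viability is the ratio of nuclei in treated wells to nuclei in vehicle wells, taken as the median of duplicate plates.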

[2] = tested on: CAL-12T
How it was run: as §1

[3] = tested on: COR-L 105
How it was run: as §1

[4] = tested on: EPLC-272H
How it was run: as §1

[5] = tested on: HCC-15
How it was run: as §1

[6] = tested on: LC-2-ad
How it was run: as §1

[7] = tested on: LCLC-97TM1
How it was run: as §1

[8] = tested on: NCI-H1395
How it was run: as §1

[9] = tested on: NCI-H1563
How it was run: as §1

[10] = tested on: NCI-H1734
How it was run: as §1

[11] = tested on: NCI-H1792
How it was run: as §1

## Cc1cn(-c2cc(NC(=O)c3ccc(C)c(Nc4nccc(-c5cccnc5)n4)c3)cc(C(F)(F)F)c2)cn1 [Nilotinib] + Cc1nc(Nc2ncc(C(=O)Nc3c(C)cccc3Cl)s2)cc(N2CCN(CCO)CC2)n1 [Dasatinib] (partner 0.075 µM)
[1]; first compound 0.001 µM
  relative viability: 0.663
[1]; first compound 0.003162 µM
  relative viability: 0.728
[1]; first compound 0.01 µM
  relative viability: 0.72
[1]; first compound 0.03162 µM
  relative viability: 0.54
[1]; first compound 0.1 µM
  relative viability: 0.1
[2]; first compound 0.001 µM
  relative viability: 0.376
[2]; first compound 0.003162 µM
  relative viability: 0.387
[2]; first compound 0.01 µM
  relative viability: 0.456
[2]; first compound 0.03162 µM
  relative viability: 0.178
[2]; first compound 0.1 µM
  relative viability: 0.137
[3]; first compound 0.001 µM
  relative viability: 0.374
[3]; first compound 0.003162 µM
  relative viability: 0.357
[3]; first compound 0.01 µM
  relative viability: 0.297
[3]; first compound 0.03162 µM
  relative viability: 0.345
[3]; first compound 0.1 µM
  relative viability: 0.222
[4]; first compound 0.001 µM
  relative viability: 0.303
[4]; first compound 0.003162 µM
  relative viability: 0.343
[4]; first compound 0.01 µM
  relative viability: 0.364
[4]; first compound 0.03162 µM
  relative viability: 0.226
[4]; first compound 0.1 µM
  relative viability: 0.107
[5]; first compound 0.001 µM
  relative viability: 0.607
[5]; first compound 0.003162 µM
  relative viability: 0.689
[5]; first compound 0.01 µM
  relative viability: 0.665
[5]; first compound 0.03162 µM
  relative viability: 0.456
[5]; first compound 0.1 µM
  relative viability: 0.433
[6]; first compound 0.001 µM
  relative viability: 0.512
[6]; first compound 0.003162 µM
  relative viability: 0.701
[6]; first compound 0.01 µM
  relative viability: 0.574
[6]; first compound 0.03162 µM
  relative viability: 0.43
[6]; first compound 0.1 µM
  relative viability: 0.387
[7]; first compound 0.001 µM
  relative viability: 0.855
[7]; first compound 0.003162 µM
  relative viability: 0.896
[7]; first compound 0.01 µM
  relative viability: 0.971
[7]; first compound 0.03162 µM
  relative viability: 0.654
[7]; first compound 0.1 µM
  relative viability: 0.617
[8]; first compound 0.001 µM
  relative viability: 0.445
[8]; first compound 0.003162 µM
  relative viability: 0.357
[8]; first compound 0.01 µM
  relative viability: 0.428
[8]; first compound 0.03162 µM
  relative viability: 0.357
[8]; first compound 0.1 µM
  relative viability: 0.333
[9]; first compound 0.001 µM
  relative viability: 0.447
[9]; first compound 0.003162 µM
  relative viability: 0.447
[9]; first compound 0.01 µM
  relative viability: 0.442
[9]; first compound 0.03162 µM
  relative viability: 0.492
[9]; first compound 0.1 µM
  relative viability: 0.329
[10]; first compound 0.001 µM
  relative viability: 0.355
[10]; first compound 0.003162 µM
  relative viability: 0.477
[10]; first compound 0.01 µM
  relative viability: 0.506
[10]; first compound 0.03162 µM
  relative viability: 0.345
[10]; first compound 0.1 µM
  relative viability: 0.304
[11]; first compound 0.001 µM
  relative viability: 0.614
[11]; first compound 0.003162 µM
  relative viability: 0.591
[11]; first compound 0.01 µM
  relative viability: 0.785
[11]; first compound 0.1 µM
  relative viability: 1.36
